Data reported in PubChem BioAssay AID602251 (NMMLSC, 2012).
pEC50: −log10 of the molar value. Calls of active or inactive are those of the source.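 How the source made its calls: active means fitted concentration giving half of the maximal binding block below 66 µM; inactive means the rest.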

Target: anti-desmoglein 3 scFv antibody binding to human desmoglein 3 (DSG3)
Test: inhibitors of anti-DSG3 scFv binding to DSG3, dose response, biochemical, DSG3-coupled beads, scFv-GFP, flow cytometry, Cherry Pick 1 (AID 602251);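 on binding response, lower = inhibition: 100% = DMSO vehicle binding and 0% = soluble DSG3 blocking control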
Settings: for binding response, lower = inhibition: at 66.1 µM (top of the series)

Row | SMILES | binding response, lower = inhibition | pEC50
1 | COc1ccc(CCNC(=O)COc2ccc(-c3ccc(C)cc3)cc2)cc1OC | inactive | 
2 | COc1ccc(NC(=O)c2ccc3c(c2)S(=O)(=O)c2ccccc2C3=O)cc1 | inactive | 
3 | C=CCNC(=O)c1c(N)n(-c2cccc(S(N)(=O)=O)c2)c2nc3ccccc3nc12 |  | 4.23
4 | CC(=O)c1c(C)n(-c2ccc(C)cc2)c2ccc(O)cc12 | inactive | 
5 | COc1ccc2cc(-c3cc(C(=O)OCC(=O)NC4CCS(=O)(=O)C4)c4ccccc4n3)ccc2c1 (stereo unspecified) |  | 4.72
6 | S=c1[nH]ncn1/N=C/c1ccccc1 | inactive | 
7 | Cc1cc(SCC(=O)Nc2ccc3[nH]c(=O)[nH]c3c2)nc2ccccc12 | inactive | 
8 | Nn1c(SCC(=O)Nc2cc(C(F)(F)F)ccc2Cl)nncc1=O |  | 4.53
9 | O=C(O)c1cccc(-n2cccc2/C=C2/NC(=O)N(c3ccc(Cl)cc3)C2=O)c1 |  | 4.93
10 | COc1cc(C(=O)Nc2cccc(-c3nc4cc(C)ccc4o3)c2C)cc(OC)c1OC |  | 4.61
11 | C=CCSc1nc(N)c(C#N)c(-c2ccccc2)c1C#N | inactive | 
12 | O=C(CSc1ccc(Cl)cc1)Nc1cccc(-c2nc3ccccc3[nH]2)c1 |  | 4.23
13 | CN(C(=O)CSc1nc2cc([N+](=O)[O-])ccc2n1-c1ccc(F)cc1)C1CCS(=O)(=O)C1 (stereo unspecified) | inactive | 
14 | O=C(COC(=O)c1ccc(S(=O)(=O)N2CCCC2)cc1)NCc1ccc(Cl)cc1 | inactive | 
15 | Cc1cc(=O)oc2c(C)c(OCC(=O)NCc3ccccn3)ccc12 | inactive | 
16 | COc1ccc(NC(=O)c2cc(-c3ccc(C)o3)nc3ccccc23)cc1OC | inactive | 
17 | CC(=O)c1ccc(NC(=O)CSc2ccsc2[N+](=O)[O-])cc1 | inactive | 
18 | Cc1ccc(O)c(NC(=O)c2ccc3c(c2)C(=O)N(Cc2cccnc2)C3=O)c1 | inactive | 
19 | Cc1nc2ccccc2nc1OCC(=O)Nc1ccc2ccccc2c1 | inactive | 
20 | COCCCNC(=O)c1c(N)n(-c2cccc(S(N)(=O)=O)c2)c2nc3ccccc3nc12 | inactive | 
21 | CCC(CC)C(=O)Nc1cccc(S(=O)(=O)c2cccc(NC(=O)C(CC)CC)c2)c1 |  | 4.26
22 | COc1ccc(C(=O)Nc2ccc(NC(=O)c3cnccn3)cn2)cc1 | inactive | 
23 | Cc1cc(C)cc(N(CC(=O)NC2CCC(C)CC2)S(=O)(=O)c2c(C)noc2C)c1 (stereo unspecified) | inactive | 

Row | SMILES | binding response, lower = inhibition | pEC50
24 | COc1ccc(N=C2S/C(=C\c3ccc(OCC(=O)O)cc3)C(=O)N2CCc2c[nH]c3ccccc23)cc1 |  | 4.80
25 | CCOc1ccc(Nc2ncnc3c2cnn3-c2ccccc2)cc1 | inactive | 
26 | O=C(CSc1nnc(Cc2ccccc2)o1)N1CCc2ccccc21 | inactive | 
27 | O=C(COc1cccnc1[N+](=O)[O-])Nc1cc(S(=O)(=O)N2CCCCC2)ccc1Cl | inactive | 
28 | O=C(O)c1cccc2c1NC(C(=O)O)C1CC(Sc3ccccc3[N+](=O)[O-])C(Cl)C21 (stereo unspecified) |  | 4.54
29 | CCC(=C/c1sc2ccc3ccccc3c2[n+]1C)/C=C1\Sc2ccc3ccccc3c2N1C |  | 4.59
30 | NC(=O)c1ccsc1NC(=O)COC(=O)c1cc(=O)[nH]c2ccccc12 |  | 4.52
31 | NC(=O)c1ccc(NC(=O)CSc2nnc(-c3ccc4c(c3)OCO4)o2)cc1 | inactive | 
32 | CS(=O)(=O)c1ccc2nc(NC(=O)Nc3ccccc3F)sc2c1 | inactive | 
33 | CSc1ccccc1OCc1cc(C(=O)NCCC2=CCCCC2)no1 | inactive | 
34 | COc1cc(/C=C2/C(=N)N3OC(C)=CC3=NC2=O)ccc1OC(=O)c1ccco1 | inactive | 
35 | NS(=O)(=O)c1ccc(NC(=O)c2cc(-c3cccs3)nc3ccccc23)cc1 |  | 4.76
36 | Cc1nnc2ccc(-c3ccc(NS(=O)(=O)c4ccccc4)cc3)nn12 | inactive | 
37 | O=C(Nc1cccc2ccccc12)N1CCN(c2ccccc2)CC1 | inactive | 
38 | O=C1c2ccc(-c3ccc(F)cc3OCc3ccccc3)cc2S(=O)(=O)c2cccc(C(=O)N3CCN(c4ncc(Br)cn4)CC3)c21 | inactive | 
39 | O=C(NC1CCCC1)C(c1ccc(O)cc1)N(CC1CCCO1)C(=O)C1COc2ccccc2O1 (stereo unspecified) | inactive | 
40 | Cc1ccc2oc(-c3ccc(NC(=O)CC(C)C)cc3)nc2c1 | inactive | 
41 | O=C(Nc1ccc(Nc2ccncc2)cc1)c1ccc(Nc2ccnc3ccc([N+](=O)[O-])cc23)cc1 | inactive | 
42 | CCc1ccc(OCC(=O)Nc2ccc(N3CCN(C(=O)c4ccccc4)CC3)cc2)cc1 | inactive | 
43 | COc1ccc(NC(=O)c2ccc3c(c2)C(=O)N(Cc2cccnc2)C3=O)c(OC)c1 | inactive | 
44 | CC(C)(C)NS(=O)(=O)c1ccc(NC(=O)c2cc(-c3ccccc3)nc3ccccc23)cc1 | inactive | 
45 | Cn1c(SCC(=O)NC2CCCCC2)nnc1-c1cc2cc(Cl)ccc2o1 |  | 4.68
46 | CCc1nnc(NC(=O)CSc2nncc(=O)n2N)s1 |  | 4.26

Row | SMILES | binding response, lower = inhibition | pEC50
47 | O=C(c1cc2cc3ccc(Cl)cc3nc2o1)N1CCN(Cc2ccc3c(c2)OCO3)CC1 | inactive | 
48 | O=C(CSc1ccsc1[N+](=O)[O-])Nc1cc(F)ccc1F | inactive | 
49 | CCCn1c(C)nc2c(c1=O)c1nc3ccccc3nc1n2-c1ccccc1 | inactive | 
50 | CCCCOC(=O)Nc1sc2nc(C)cc(C)c2c1-n1cccc1 |  | 4.38
51 | Cc1cc(NC(=O)c2cc(-c3ccccn3)nc3ccc(Br)cc23)no1 | inactive | 
52 | CCOc1ccc(-n2nc3ccc(NC(=O)c4ccc5c(c4)OCCO5)cc3n2)cc1 | inactive | 
53 | O=C(NC1CCCCC1)C(c1ccc(O)cc1)N(CC1CCCO1)C(=O)C1COc2ccccc2O1 (stereo unspecified) |  | 4.42
54 | COc1ccc(OC)c(NC(=O)c2nc(-c3ccccc3)oc2C)c1 | inactive | 
55 | CC(C)OC(=O)CSc1nc2c(cc1C#N)CCCCC2 | inactive | 
56 | Nc1c(C(=O)c2ccccc2)oc2ccc([N+](=O)[O-])cc12 | inactive | 
57 | Cn1c2ccccc2c(=O)c2c(=O)n(Cc3ccco3)c(COc3ccccc3)nc21 | inactive | 
58 | Cc1ccc(CSc2nnc(Nc3ccc(C)cc3)s2)cc1 | inactive | 
59 | Nc1cc(-c2ccc(Br)cc2)nn1S(=O)(=O)c1ccccc1 | inactive | 
60 | CCOC(=O)Cc1csc(-n2sc3ccccc3c2=O)n1 |  | 4.82
61 | Nc1ncnc2oc(-c3ccco3)c(-c3ccco3)c12 | inactive | 
62 | N=c1oc2ccc3ccccc3c2cc1C(N)=S | inactive | 
63 | COc1cccc2c1NC(C(=O)O)C1CC=CC21 (stereo unspecified) |  | 4.49
64 | COc1ccc(O)c(/C=N/n2c(-c3ccco3)csc2=Nc2cccnc2)c1 | inactive | 
65 | Cc1c([N+](=O)[O-])cc(C(=O)Nc2ccc(NC(=O)c3ccco3)cc2)cc1[N+](=O)[O-] | inactive | 
66 | COc1ccc(-n2c(SCC(=O)Nc3nccs3)nnc2-c2ccc(Cl)cc2)cc1 |  | 4.55
67 | COc1cc(OC)cc(N(C(=O)C2COc3ccccc3O2)C(C(=O)NC2CCCCC2)c2ccc(O)cc2)c1 (stereo unspecified) | inactive | 
68 | O=C1OC(COc2ccc(Br)cc2)CN1c1ccccc1 (stereo unspecified) | inactive | 
69 | CSc1nc(SCC(=O)O)c2sc3nc(-c4ccccc4)c4c(c3c2n1)CCC4 | inactive | 

Row | SMILES | binding response, lower = inhibition | pEC50
70 | Nc1ccc2nc(-c3cccc(-c4nc5ccc(N)cc5[nH]4)c3)[nH]c2c1 |  | 4.19
71 | OCc1cn(-c2ccccc2)nc1-c1ccc(-c2nn(-c3ccccc3)cc2CO)cc1 | inactive | 
72 | COc1ccc(N2CCN(C(=O)c3sc4nc(-c5ccc(F)cc5)cn4c3C)CC2)cc1 | inactive | 
73 | Cc1ccc(NC(=O)CSc2ccc(C(N)=O)cc2[N+](=O)[O-])cc1C | inactive | 
74 | CCOc1ccc(N2CSC(=S)N(c3ccc(OCC)cc3)C2)cc1 | inactive | 
75 | O=C(COC(=O)c1ccc(S(=O)(=O)N2CCc3ccccc3C2)cc1)NC1CCS(=O)(=O)C1 (stereo unspecified) | inactive | 
76 | COC(=O)c1sc(NC(=O)c2cc(-c3ccccc3)nc3ccccc23)c(C#N)c1C | inactive | 
77 | CSCCC(NC(=O)C12CC3CC(CC(C3)C1)C2)C(=O)OCC(=O)c1ccc(C)cc1 (stereo unspecified) | inactive | 
78 | O=C(O)CCC(=O)NCCC1=c2ccccc2=N/C1=C\c1c(O)n(Cc2ccc(F)cc2)c(=S)[nH]c1=O | inactive | 
79 | COc1ccccc1CNC(=O)COC(=O)c1ccc(S(=O)(=O)N2CCCCC2)cc1 | inactive | 
80 | O=C(Nc1ccc2c(c1)OCO2)C1CCN(c2ccc(S(=O)(=O)N3CCOCC3)cc2)CC1 | inactive | 
81 | COc1ccc(NC(=O)c2cc(-c3ccco3)nc3ccccc23)cc1 | inactive | 
82 | COc1ccc2cc(C#N)c(SCC(=O)N3CC(=O)Nc4ccccc43)nc2c1 | inactive | 
83 | O=C(N/N=C1/C(=O)c2cccc3cccc1c23)c1ccc(Cl)cc1 | inactive | 
84 | Cc1ccsc1-c1nc(-c2ccccc2)c(-c2ccccc2)[nH]1 | inactive | 
85 | CCOC(=O)C1=C(N)n2c(s/c(=C\c3cccnc3)c2=O)=C(C(=O)OC)C1c1cccnc1 (stereo unspecified) | inactive | 
86 | C=CCSc1nc(N)c(C(=O)Nc2ccccc2)cc1C#N | inactive | 
87 | Cc1ccc2nc(NC(=O)c3ccc4ncsc4c3)sc2c1 | inactive | 
88 | Cc1c(C(=O)Nc2ccc(OCc3ccccc3)cc2)cccc1[N+](=O)[O-] | inactive | 
89 | NS(=O)(=O)c1ccc(-c2ccc(/C=C3\SC(=S)N(C4CCS(=O)(=O)C4)C3=O)o2)cc1 (stereo unspecified) | inactive | 
90 | O=C(Nc1cccc([N+](=O)[O-])c1)c1ccc(CSc2ccccc2)cc1 | inactive | 
91 | CCCCN1C=C(C(=O)OC)C(c2ccccc2C(F)(F)F)C(C(=O)OC)=C1 | inactive | 
